Results: patent US12261337B2, “Aqueous electrolyte, redox flow battery and use thereof” (priority 2018, dated 2025)

Assays:
[1] = oxidized using Oxone; storage at 60° C., also in the absence of air; after three days
[2] = cited from earlier work

Molecule | stability of the charged molecule / charged electrolytes after storage [1] | solubility in organic solvents ([2]; organic solvents) | solubility in water ([2]; water)
ferrocene-bis-sulfonic acid [Example 1] | irreversible precipitate | – | –
C1=C[CH]([Fe][CH]2C=CC=C2)C=C1 [Ferrocene, bis(η^5-cyclopentadienyl)iron(II)] | – | readily soluble | sparingly soluble
